# Measured values as given in ChEMBL document CHEMBL5620343, “Advances in the development of phosphodiesterase 7 inhibitors” (Eur J Med Chem, 2023).
# Molecular target: T1, High affinity 3',5'-cyclic-AMP phosphodiesterase 7A (Homo sapiens, UniProt Q13946)
# Assay: Inhibition of recombinant PDE7A1 (130 to 482 residues) (unknown origin) expressed in Escherichia coli BL21 (DE3) using [3H]cAMP as substrate incubated for 15 mins by liquid scintillation method
# Details: not given
# T1 sequence (Q13946 whole entry, the tested form may be a part): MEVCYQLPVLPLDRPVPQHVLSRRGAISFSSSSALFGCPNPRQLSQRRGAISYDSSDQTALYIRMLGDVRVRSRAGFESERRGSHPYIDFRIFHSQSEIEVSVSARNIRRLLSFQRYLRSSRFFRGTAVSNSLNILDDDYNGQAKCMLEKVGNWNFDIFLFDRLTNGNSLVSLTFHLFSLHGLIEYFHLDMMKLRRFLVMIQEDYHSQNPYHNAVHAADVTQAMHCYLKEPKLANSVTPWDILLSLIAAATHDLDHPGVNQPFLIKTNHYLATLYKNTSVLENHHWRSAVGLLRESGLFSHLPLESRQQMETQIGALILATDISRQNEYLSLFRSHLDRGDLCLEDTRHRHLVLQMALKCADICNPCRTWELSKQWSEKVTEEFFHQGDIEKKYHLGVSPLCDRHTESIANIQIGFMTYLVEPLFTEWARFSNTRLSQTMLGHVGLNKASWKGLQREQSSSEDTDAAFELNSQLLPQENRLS
row,SMILES,IC50
1,CCOC(=O)c1cc2c(=O)n3ccccc3nc2n(C2CCCCC2)/c1=N\C(C)=O,142 nM
2,CCOc1ccc(-c2c(C(C)(C)O)oc(=O)c3ccccc23)cc1OC1CCCC1,1400 nM

# Molecular target: 3',5'-cyclic-AMP phosphodiesterase 7B (Homo sapiens, UniProt Q9NP56)
# Assay: Inhibition of PDE7B (unknown origin) by 3H-cAMP scintillation proximity assay
# Details: not given
# Chain of 3',5'-cyclic-AMP phosphodiesterase 7B (Q9NP56 whole entry): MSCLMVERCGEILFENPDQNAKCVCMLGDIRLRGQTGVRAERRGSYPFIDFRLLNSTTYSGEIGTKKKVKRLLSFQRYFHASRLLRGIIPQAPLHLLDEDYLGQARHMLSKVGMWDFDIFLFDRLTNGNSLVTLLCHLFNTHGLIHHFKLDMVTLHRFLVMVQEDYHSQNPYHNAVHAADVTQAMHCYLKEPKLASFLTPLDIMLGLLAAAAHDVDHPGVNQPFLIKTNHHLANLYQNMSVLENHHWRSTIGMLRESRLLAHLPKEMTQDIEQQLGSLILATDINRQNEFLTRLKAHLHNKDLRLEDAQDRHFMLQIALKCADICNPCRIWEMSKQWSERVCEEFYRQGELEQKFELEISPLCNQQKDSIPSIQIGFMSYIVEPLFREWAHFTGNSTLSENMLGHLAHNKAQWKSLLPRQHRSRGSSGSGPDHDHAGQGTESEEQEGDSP
row,SMILES,IC50
1,Cc1ccc([N+](=O)[O-])cc1S(=O)(=O)N(C)C,620 nM
2,O=c1c2ccccc2[nH]c(=S)n1-c1ccccc1,8800 nM
3,COc1ccc(-c2cc3c(n2-c2ccc(S(=O)(=O)Nc4nc(C)cc(C)n4)cc2)CCC(N2CCN(C)CC2)C3)cc1C (stereo not given),14 nM
4,COc1ccc(C2=NN(C3CCN(C(=O)N4CCOCC4)CC3)C(=O)[C@@H]3CC=CC[C@H]23)cc1Cl,23 nM
5,CCOc1cc2cc(CO)c(CO)c(-c3ccnc(-n4nc(-c5cccnc5)c5ccccc5c4=O)c3)c2cc1OCC,1700 nM

# Organism: Homo sapiens
# Assay: Selectivity index, ratio of IC50 for human PDE4B1 S133D mutant to IC50 for human PDE4D7 S129D mutant
# Details: not given
row,SMILES,Ratio IC50
1,Cc1ccc([N+](=O)[O-])cc1S(=O)(=O)N(C)C,238

# Tested on: not listed separately
# Assay: Inhibition of human PDE4 catalytic domain expressed in Escherichia coli
# Details: not given
row,SMILES,IC50
1,COc1ccc(-c2cc3c(n2-c2ccc(S(=O)(=O)Nc4nc(C)cc(C)n4)cc2)CCC(N2CCN(C)CC2)C3)cc1C (stereo not given),630 nM
2,COc1ccc(C2=NN(C3CCN(C(=O)N4CCOCC4)CC3)C(=O)[C@@H]3CC=CC[C@H]23)cc1Cl,2.3 nM
3,CCOc1cc2cc(CO)c(CO)c(-c3ccnc(-n4nc(-c5cccnc5)c5ccccc5c4=O)c3)c2cc1OCC,130 nM

# Tested on: not listed separately
# Assay: Selectivity index, ratio of IC50 for inhibition of PDE7A1 (130 to 482 residues) (unknown origin) expressed in Escherichia coli BL21 to IC50 for inhibition of recombinant PDE4D2 (86 to 413 residues) (unknown origin) expressed in Escherichia coli BL21
# Details: not given
row,SMILES,Ratio IC50
1,COc1ccc(-c2cc3c(n2-c2ccc(S(=O)(=O)Nc4nc(C)cc(C)n4)cc2)CCC(N2CCN(C)CC2)C3)cc1C (stereo not given),45
2,COc1ccc(C2=NN(C3CCN(C(=O)N4CCOCC4)CC3)C(=O)[C@@H]3CC=CC[C@H]23)cc1Cl,10
3,CCOc1cc2cc(CO)c(CO)c(-c3ccnc(-n4nc(-c5cccnc5)c5ccccc5c4=O)c3)c2cc1OCC,13

# Molecular target: T1, High affinity 3',5'-cyclic-AMP phosphodiesterase 7A
# Assay: Inhibition of PDE7A (unknown origin)
# Details: not given
row,SMILES,IC50
1,COc1ccc(C2=NN(C3CCCC3)C(=O)[C@@H]3CC=CC[C@H]23)cc1Cl,18.6 nM
2,CCn1ncc2c(NC3CCOCC3)c(-c3nnc(Cc4sc(C)nc4C)o3)cnc21 [GSK-356278],0.76 nM

# Molecular target: T2, Phosphodiesterase 7 (Homo sapiens, UniProt Q13946+Q9NP56)
# Assay: Inhibition of full length PDE7 (unknown origin) using FAM-cAMP as substrate by fluorescence based analysis
# Format: protein assay
# Details: not given
row,SMILES,IC50
1,COc1cc(CN(Cc2ccc(OC)cc2OC)c2ncnc3c2nnn3C2CC(C(F)(F)F)CCC2(F)F)cc(OC)c1 (stereo not given),< 10 nM
2,Fc1cc2nc(S)[nH]c(=S)c2cc1F,74 nM
3,COc1ccc(Cn2c(=O)c3cc(OCC#N)ccc3n(C3CCSCC3)c2=O)cc1OC,5.5 nM
4,COc1cc(-c2nc(NC3CCCC3)c3ccsc3n2)cc(OC)c1OC,20 nM
5,Br.c1ccc(-c2n/c(=N/CCC3CCOCC3)sn2-c2ccccc2)cc1,1590 nM
6,O=S1(=O)N=C(O)c2ccccc2N1,8000 nM
7,COc1ccc(Cn2c(=O)c3cc(OCC#N)ccc3n(C3CC[S+]([O-])CC3)c2=O)cc1OC (stereo not given),6.1 nM
8,O=C1Nc2c(Cl)ccc(OCCO)c2C2(CCCCC2)N1,55 nM
9,CSc1nc2c(C)cccc2c(=O)n1-c1c(F)cccc1F,130 nM
10,COc1ccc(/C(CSc2nc3ccccc3c(=O)n2-c2ccccc2)=N\O)cc1,1150 nM
11,S=c1[nH]c2ccccc2c(=S)n1-c1ccccc1,550 nM
12,CC(C)(C)CSc1nc2ccccc2c(=O)n1-c1ccccc1,100 nM
13,Cn1nc(-c2ccc(Cl)cc2)s/c1=N\C1CCCCC1,1500 nM

# Molecular target: Phosphodiesterase 3 (Homo sapiens, UniProt Q14432+Q13370)
# Assay: Inhibition of human recombinant PDE3 expressed in Escherichia coli
# Details: not given
row,SMILES,IC50
1,Br.c1ccc(-c2n/c(=N/CCC3CCOCC3)sn2-c2ccccc2)cc1,> 10000 nM
2,COc1ccc(C2=NN(C3CCCC3)C(=O)[C@@H]3CC=CC[C@H]23)cc1Cl,0.76 nM
3,CCn1ncc2c(NC3CCOCC3)c(-c3nnc(Cc4sc(C)nc4C)o3)cnc21 [GSK-356278],5 nM

# Molecular target: T3, Glycogen synthase kinase-3 beta (Homo sapiens, UniProt P49841)
# Assay: Inhibition of GSK-3beta (unknown origin)
# Details: not given
# T3 sequence (P49841 whole entry): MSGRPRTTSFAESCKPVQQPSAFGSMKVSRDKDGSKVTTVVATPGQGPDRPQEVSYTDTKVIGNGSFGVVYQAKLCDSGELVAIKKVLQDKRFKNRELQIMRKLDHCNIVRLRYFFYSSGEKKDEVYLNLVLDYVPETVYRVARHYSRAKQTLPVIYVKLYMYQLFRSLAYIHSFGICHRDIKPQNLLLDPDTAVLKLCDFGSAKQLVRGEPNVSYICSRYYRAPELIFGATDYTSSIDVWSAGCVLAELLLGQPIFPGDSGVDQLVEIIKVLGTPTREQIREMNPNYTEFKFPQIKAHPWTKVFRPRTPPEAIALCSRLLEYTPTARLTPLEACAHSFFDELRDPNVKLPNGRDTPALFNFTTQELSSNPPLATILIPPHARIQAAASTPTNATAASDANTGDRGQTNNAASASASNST
row,SMILES,IC50
1,OCC/N=c1/nc(-c2ccccc2)n(-c2ccccc2)s1,1950 nM

# Molecular target: 3',5'-cyclic-AMP phosphodiesterase 4D (Homo sapiens, UniProt Q08499)
# Assay: Inhibition of human PDE4D3
# Details: not given
# Chain of 3',5'-cyclic-AMP phosphodiesterase 4D (Q08499 whole entry): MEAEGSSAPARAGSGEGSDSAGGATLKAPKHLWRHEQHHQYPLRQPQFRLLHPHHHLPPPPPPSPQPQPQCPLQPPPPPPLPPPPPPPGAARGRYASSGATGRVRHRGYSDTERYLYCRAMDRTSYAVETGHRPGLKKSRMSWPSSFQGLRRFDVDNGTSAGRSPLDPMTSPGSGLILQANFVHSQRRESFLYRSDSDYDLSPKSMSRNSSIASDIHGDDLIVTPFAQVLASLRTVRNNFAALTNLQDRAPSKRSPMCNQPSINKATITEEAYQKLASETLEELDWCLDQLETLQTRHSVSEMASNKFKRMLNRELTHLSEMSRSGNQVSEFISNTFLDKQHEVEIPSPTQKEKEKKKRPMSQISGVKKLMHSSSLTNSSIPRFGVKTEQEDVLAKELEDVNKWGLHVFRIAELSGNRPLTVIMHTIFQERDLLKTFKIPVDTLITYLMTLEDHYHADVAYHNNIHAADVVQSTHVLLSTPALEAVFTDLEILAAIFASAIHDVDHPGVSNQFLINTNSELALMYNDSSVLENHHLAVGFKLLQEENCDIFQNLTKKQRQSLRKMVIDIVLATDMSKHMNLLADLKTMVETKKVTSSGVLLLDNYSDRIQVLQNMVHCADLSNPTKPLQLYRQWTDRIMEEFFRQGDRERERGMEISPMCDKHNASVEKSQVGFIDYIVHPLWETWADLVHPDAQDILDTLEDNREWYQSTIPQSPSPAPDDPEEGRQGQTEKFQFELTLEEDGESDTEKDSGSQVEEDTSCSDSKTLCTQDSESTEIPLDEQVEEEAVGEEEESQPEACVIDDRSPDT
row,SMILES,IC50
1,Cn1nc(-c2ccc(C(N)=O)cc2)s/c1=N\[C@@H]1CCC[C@@H](O)C1,88 nM
2,Cn1nc(-c2ccc(C(N)=O)cc2)s/c1=N\C1CCCCC1,61 nM
3,Cn1nc(-c2ccc(Cl)cc2)s/c1=N\c1ccc(F)c(C(=O)O)c1,160 nM

# Molecular target: T2, Phosphodiesterase 7
# Assay: Inhibition of PDE7 (unknown origin) by fluorescent based assay
# Format: protein assay
# Details: not given
row,SMILES,IC50
1,COc1cc(Cn2c(=O)c3cc(OC(CF)CF)ccc3n(C3CCN(C=O)CC3)c2=O)ccc1OCC(=O)N1CCCCC1,46 nM
2,N=c1nc(-c2ccccc2)n(-c2ccccc2)s1,1020 nM
3,N#Cc1cc(Cn2c(=O)c3cc(OC(CF)CF)ccc3n(C3CCN(C=O)CC3)c2=O)ccc1-c1ccccc1,37 nM
4,CC(C)Cn1c(=O)n(C)c(=O)c2nc[nH]c21 [ISOBUTYLMETHYLXANTHINE],8100 nM
5,COc1ccc(Cn2c(=O)c3cc(OC(CF)CF)ccc3n(C3CCN(C=O)CC3)c2=O)cc1OC,39 nM
6,c1ccc(-c2n/c(=N/CCN3CCOCC3)sn2-c2ccccc2)cc1,1590 nM
7,c1ccc(-c2n/c(=N/Cc3cccnc3)sn2-c2ccccc2)cc1,380 nM

# Molecular target: T2, Phosphodiesterase 7
# Assay: Inhibition of PDE7 (unknown origin)
# Format: protein assay
# Details: not given
row,SMILES,IC50
1,CCn1c(NC(C)C)nc2c(C3CCN(C(=O)c4cccc(C)n4)C3)csc2c1=O (stereo not given),3.3 nM

# Molecular target: T4, Phosphodiesterase 4 (Homo sapiens, UniProt P27815+Q08499+Q07343+Q08493)
# Assay: Inhibition of PDE4 (unknown origin) by fluorescent based assay
# Format: protein assay
# Details: not given
row,SMILES,IC50
1,COc1cc(CN(Cc2ccc(OC)cc2OC)c2ncnc3c2nnn3C2CC(C(F)(F)F)CCC2(F)F)cc(OC)c1 (stereo not given),11900 nM
2,O=C(Nc1ccc(N2CCOCC2)cc1)c1cn(Cc2c(F)cccc2F)c2cccnc2c1=O,380 nM
3,CCn1c(NC(C)C)nc2c(C3CCN(C(=O)c4cccc(C)n4)C3)csc2c1=O (stereo not given),46 nM
4,CSc1nc2c(C)cccc2c(=O)n1-c1c(F)cccc1F,1400 nM

# Tested on: not listed separately
# Assay: Half life in rat
# Format: ADME
# Details: in vivo
row,SMILES,half-life
1,CN1CCN(C(=O)c2ccc(-c3cc(Cl)c4c(c3)C3(CCCCC3)NC(=O)N4)cc2)CC1,1.5 h

# Tested on: not listed separately
# Assay: Oral bioavailability in rat
# Format: ADME, organism-based
# Details: in vivo
row,SMILES,bioavailability
1,CN1CCN(C(=O)c2ccc(-c3cc(Cl)c4c(c3)C3(CCCCC3)NC(=O)N4)cc2)CC1,27%

# Molecular target: T2, Phosphodiesterase 7
# Assay: Inhibition of recombinant PDE7 (unknown origin) expressed in Escherichia coli BL21 (DE3) using [3H]cAMP as substrate preincubated for 15 mins followed by compound addition and incubated for 1 hr by liquid scintillation method
# Details: not given
row,SMILES,IC50
1,CN1CCN(C(=O)c2ccc(-c3cc(Cl)c4c(c3)C3(CCCCC3)NC(=O)N4)cc2)CC1,14 nM
2,O=C1Nc2c(Cl)ccc(OCCO)c2C2(CCCCC2)N1,55 nM
3,O=C1Nc2c(Cl)cccc2C2(CCCCC2)N1,170 nM
4,O=C1Nc2c(Cl)cc(-c3ccccc3)cc2C2(CCCCC2)N1,16 nM

# Molecular target: T4, Phosphodiesterase 4
# Assay: Inhibition of human recombinant PDE4
# Format: protein assay
# Details: not given
row,SMILES,IC50
1,CN1CCN(C(=O)c2ccc(-c3cc(Cl)c4c(c3)C3(CCCCC3)NC(=O)N4)cc2)CC1,1700 nM
2,O=C1Nc2c(Cl)cc(-c3ccccc3)cc2C2(CCCCC2)N1,1420 nM

# Molecular target: T1, High affinity 3',5'-cyclic-AMP phosphodiesterase 7A
# Assay: Inhibition of recombinant PDE7A1 (unknown origin) expressed in Escherichia coli BL21 using [3H]cAMP as substrate preincubated for 15 mins followed by compound addition and measured after 1 hr by liquid scintillation method
# Details: not given
row,SMILES,IC50
1,O=C1Nc2c(Cl)cc3nc(CN4CCNCC4)oc3c2C2(CCCCC2)N1,< 10 nM
2,CN(C)C(=O)CCN(C)C(=O)c1nc2cc(Cl)c3c(c2o1)C1(CCCCC1)NC(=O)N3,< 10 nM
3,Cn1nc(-c2ccc(C(N)=O)cc2)s/c1=N\[C@@H]1CCC[C@@H](O)C1,616 nM
4,Cn1nc(-c2ccc(C(N)=O)cc2)s/c1=N\C1CCCCC1,15300 nM
5,FC(F)(F)c1cc(N2C(=S)Nc3ccccc3C23CCc2ccccc2N3)cc(C(F)(F)F)c1 (stereo not given),< 171 nM
6,O=C1Nc2c(Cl)ccc(Oc3ccccc3-c3nnn[nH]3)c2C2(CCCCC2)N1,< 0.15 nM
7,Cn1nc(-c2ccc(Cl)cc2)s/c1=N\c1ccc(F)c(C(=O)O)c1,3970 nM

# Tested on: not listed separately
# Assay: Aqueous solubility of compound in PBS at pH 6.5
# Format: physicochemical
# Details: not given
row,SMILES,solubility
1,CCOC(=O)c1sc(Nc2nc(NCc3ccc(S(N)(=O)=O)cc3)c3c(ncn3CC)n2)nc1C,5 µg/mL

# Tested on: not listed separately
# Assay: Oral bioavailability in mouse at 2.5 mg/kg
# Format: ADME, organism-based
# Details: in vivo
row,SMILES,bioavailability
1,Cn1nc(-c2ccc(C(N)=O)cc2)s/c1=N\[C@@H]1CCC[C@@H](O)C1,38.5%
2,Cn1nc(-c2ccc(Cl)cc2)s/c1=N\c1ccc(F)c(C(=O)O)c1,49.3%

# Tested on: not listed separately
# Assay: Brain to plasma ratio in iv dosed rat measured after 30 mins
# Format: ADME, organism-based
# Details: read-out: BPR
row,SMILES,Kp at 0.5 h
1,COc1ccc(C2=NN(C3CCCC3)C(=O)[C@@H]3CC=CC[C@H]23)cc1Cl,1.69

# Molecular target: 3',5'-cyclic-AMP phosphodiesterase 4A (Homo sapiens, UniProt P27815)
# Assay: Inhibition of PDE4A1 (unknown origin)
# Details: not given
# Chain of 3',5'-cyclic-AMP phosphodiesterase 4A (P27815 whole entry): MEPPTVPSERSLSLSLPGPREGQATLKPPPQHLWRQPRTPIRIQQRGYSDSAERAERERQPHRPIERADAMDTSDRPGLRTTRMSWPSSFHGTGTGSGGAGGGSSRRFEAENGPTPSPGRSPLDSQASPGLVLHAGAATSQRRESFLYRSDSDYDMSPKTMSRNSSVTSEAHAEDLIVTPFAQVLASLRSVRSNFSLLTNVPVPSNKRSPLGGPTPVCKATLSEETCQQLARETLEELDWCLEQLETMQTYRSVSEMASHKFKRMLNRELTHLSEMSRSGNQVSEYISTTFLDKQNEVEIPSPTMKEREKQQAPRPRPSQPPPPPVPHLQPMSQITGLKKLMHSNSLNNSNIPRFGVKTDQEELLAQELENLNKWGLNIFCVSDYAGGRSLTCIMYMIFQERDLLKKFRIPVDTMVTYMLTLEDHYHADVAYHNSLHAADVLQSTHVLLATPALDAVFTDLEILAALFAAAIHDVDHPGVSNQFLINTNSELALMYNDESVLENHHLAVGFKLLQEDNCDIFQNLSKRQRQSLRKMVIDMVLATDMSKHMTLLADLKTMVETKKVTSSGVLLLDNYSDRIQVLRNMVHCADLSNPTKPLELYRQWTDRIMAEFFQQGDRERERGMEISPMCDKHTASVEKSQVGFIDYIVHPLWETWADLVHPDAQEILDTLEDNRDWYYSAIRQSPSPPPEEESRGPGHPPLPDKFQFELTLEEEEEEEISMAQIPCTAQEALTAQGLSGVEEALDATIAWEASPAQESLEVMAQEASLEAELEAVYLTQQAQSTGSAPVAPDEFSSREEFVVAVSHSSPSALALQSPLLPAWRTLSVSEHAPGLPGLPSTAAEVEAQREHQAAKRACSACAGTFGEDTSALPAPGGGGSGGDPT
row,SMILES,IC50
1,CCOC(=O)c1cc2c(=O)n3ccccc3nc2n(C2CCCCC2)/c1=N\C(C)=O,112 nM

# Molecular target: 3',5'-cyclic-AMP phosphodiesterase 4B (Homo sapiens, UniProt Q07343)
# Assay: Inhibition of PDE4B1 (unknown origin)
# Details: not given
# Chain of 3',5'-cyclic-AMP phosphodiesterase 4B (Q07343 whole entry): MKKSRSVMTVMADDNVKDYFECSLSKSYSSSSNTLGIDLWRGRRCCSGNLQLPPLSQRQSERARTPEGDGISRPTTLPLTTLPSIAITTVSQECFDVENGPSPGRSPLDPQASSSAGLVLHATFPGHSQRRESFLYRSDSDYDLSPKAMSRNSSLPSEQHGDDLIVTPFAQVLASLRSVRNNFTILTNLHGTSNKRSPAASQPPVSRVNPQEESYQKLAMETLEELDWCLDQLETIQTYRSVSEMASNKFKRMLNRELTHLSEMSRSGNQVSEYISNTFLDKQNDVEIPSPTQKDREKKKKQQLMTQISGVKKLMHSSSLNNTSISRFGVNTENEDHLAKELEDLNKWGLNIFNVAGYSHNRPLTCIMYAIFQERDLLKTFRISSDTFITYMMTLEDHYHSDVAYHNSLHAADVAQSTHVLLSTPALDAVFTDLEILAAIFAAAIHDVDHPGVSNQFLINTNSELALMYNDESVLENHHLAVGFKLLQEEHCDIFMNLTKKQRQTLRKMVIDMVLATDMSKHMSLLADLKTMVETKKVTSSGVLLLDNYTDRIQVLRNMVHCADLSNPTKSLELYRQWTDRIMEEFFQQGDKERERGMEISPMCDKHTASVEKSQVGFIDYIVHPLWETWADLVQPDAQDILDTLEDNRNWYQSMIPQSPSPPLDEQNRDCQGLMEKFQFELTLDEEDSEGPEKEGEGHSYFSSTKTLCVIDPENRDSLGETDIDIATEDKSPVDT
row,SMILES,IC50
1,CCOC(=O)c1cc2c(=O)n3ccccc3nc2n(C2CCCCC2)/c1=N\C(C)=O,305 nM
2,CCCCc1nc2c(c(=O)n(C)c(=O)n2C)n1CCCC(=O)Nc1cc(C(C)(C)C)ccc1O,543 nM

# Molecular target: T3, Glycogen synthase kinase-3 beta
# Assay: Inhibition of GSK3beta (unknown origin) activity assessed as […] by ADP-Glo Kinase Assay
# Details: not given
row,SMILES,IC50
1,N=c1nc(-c2ccccc2)n(-c2ccccc2)s1,6300 nM
2,c1ccc(-c2n/c(=N/CCN3CCOCC3)sn2-c2ccccc2)cc1,880 nM
3,c1ccc(-c2n/c(=N/Cc3cccnc3)sn2-c2ccccc2)cc1,1280 nM

# Tested on: not listed separately
# Assay: Inhibition of PDE8 (unknown origin) by fluorescent based assay
# Set-up: species or system Homo sapiens
# Details: not given
row,SMILES,IC50
1,N#Cc1cc(Cn2c(=O)c3cc(OC(CF)CF)ccc3n(C3CCN(C=O)CC3)c2=O)ccc1-c1ccccc1,15 nM
2,COc1ccc(Cn2c(=O)c3cc(OC(CF)CF)ccc3n(C3CCN(C=O)CC3)c2=O)cc1OC,140 nM
